Laboratory results as given in patent publication US20080227655A1, “Assessment of effect of an agent on a human biological condition using rodent gene expression panels” (priority 2006, published 2008).
Where “and” joins values, the source holds several entries; their conditions need not be identical. Identical values can stand only once.

Tested on: custom murine 40-gene Precision Profile for Rheumatoid Arthritis, whole blood
Assay: KRN (K/BxN) serum transfer induced arthritis model, whole blood gene expression by QPCR, vehicle or dexamethasone treatment
Assay type: in vivo, female BALB/c mice
Description: Whole blood gene expression changes were evaluated in vehicle control and drug-treated murine subjects across two murine models of arthritis according to the following arthritis models:
KRN Transgenic Mouse (K/B×N): K/B×N serum from transgenic mouse used to induce arthritis in female BALB/c mice (n=54). Collagen Induced Arthritis (CIA): Bovine type II collagen used to induce arthritis in male DBA/1 mice (n=54).
In addition, naïve, untreated animal groups at baseline and terminal day were included to control for potential age-related changes in gene expression over the extended study periods. Animal groups, time-points, and treatment schedules are summarized in Tables 20A and 20B, respectively.
Whole blood samples from animals were collected by retro-orbital bleed at selected time-points in accordance with the arthritis study schemas described in […], and transferred into sample collection tubes containing a 1.5× lysis solution and RPMI. Samples were processed into total RNA and cDNA. […] It was anticipated from these murine models would provide a better understanding of the relevant molecular response of arthritis induction and their potential correlation to the human disease condition.
Normal murine subject reference values (represented as normalized Ct or ΔCt values) were established for male DBA/1 mice (n=6 for the CIA study arm) and female BALB/c mice (n=6 for the KRN study arm). In both arms of the study, gene expression response of normal (naïve, non-immunized and untreated) murine subjects were evaluated in groups of 6 each at day 0 and day 60 for the CIA study arm, and at day 0 and day 21 for the KRN study arm (see Tables 20A and 20B).
Gene expression responses for the arthritis-induced murine model were evaluated for untreated mice at day 3 and vehicle-treated mice at days 7, 14 and 21 to characterize disease progression.

[1] = KRN Day 7, Dex-treated, group Average
[2] = KRN Day 7, Dex-treated, individual murine subject, listed as Dex
[3] = KRN Day 7 Dex, group Average, whole blood
[4] = KRN Day 7 Dex, individual mouse, whole blood, listed as Dex
[5] = KRN Day 14, Dex-treated, group Average
[6] = KRN Day 14, Dex-treated, individual murine subject

Q: How did the “Normalized CT Value (Delta CT) IL1RAP_M” value [1] turn out when `C[C@@H]1C[C@H]2[C@@H]3CCC4=CC(=O)C=C[C@]4(C)[C@@]3(F)[C@@H](O)C[C@]2(C)[C@@]1(O)C(=O)CO` [Dexamethasone] was run?
A: 18.33

Q: What about the “Normalized CT Value (Delta CT) IL1RN—M” value [1] of the same molecule?
A: 17.22

Q: And the “Normalized CT Value (Delta CT) IL6_M” value [1]?
A: 25.38

Q: What about the “Normalized CT Value (Delta CT) JUN_M” value [1] of the same molecule?
A: 18.89

Q: What about the “Normalized CT Value (Delta CT) MEF2C—M” value [1] of the same molecule?
A: 18.74

Q: And the “Normalized CT Value (Delta CT) MMP9—M” value [1]?
A: 13.84

Q: And the “Normalized CT Value (Delta CT) NFKB1—M” value [1]?
A: 15.89

Q: What about the “Normalized CT Value (Delta CT) PADI4—M” value [1] of the same molecule?
A: 18.34

Q: What about the “Normalized CT Value (Delta CT) PLA2G7—M” value [1] of the same molecule?
A: 14.34

Q: And the “Normalized CT Value (Delta CT) PTPRC_M” value [1]?
A: 13.18

Q: What about the “Normalized CT Value (Delta CT) PTX3_M” value [1] of the same molecule?
A: 25.34

Q: What about the “Normalized CT Value (Delta CT) SERPINE1_M” value [1] of the same molecule?
A: 19.43

Q: And the “Normalized CT Value (Delta CT) TGFB1_M” value [1]?
A: 14.97

Q: And the “Normalized CT Value (Delta CT) TIMP1_M” value [1]?
A: 24.84

Q: What about the “Normalized CT Value (Delta CT) TLR2_M” value [1] of the same molecule?
A: 17.04

Q: And the “Normalized CT Value (Delta CT) TLR4_M” value [1]?
A: 17.74

Q: And the “Normalized CT Value (Delta CT) TNFSF5—M” value [1]?
A: 19.10

Q: And the “Normalized CT Value (Delta CT) TNF_M” value [1]?
A: 19.04

Q: And the “Normalized CT Value (Delta CT) VEGF_M” value [1]?
A: 20.01

Q: And the “Normalized CT Value (Delta CT) IL1RAP_M” value [2]?
A: 18.35 and 18.23 and 18.52 and 17.82 and 18.87 and 18.20

Q: What about the “Normalized CT Value (Delta CT) IL1RN—M” value [2] of the same molecule?
A: 17.09 and 17.55 and 17.42 and 16.65 and 17.60 and 17.00

Q: What about the “Normalized CT Value (Delta CT) IL6_M” value [2] of the same molecule?
A: 25.25 and 25.61 and 25.41 and 25.23 and 25.30 and 25.45

Q: What about the “Normalized CT Value (Delta CT) JUN_M” value [2] of the same molecule?
A: 18.66 and 18.44 and 19.15 and 18.37 and 19.81 and 18.91

Q: And the “Normalized CT Value (Delta CT) MEF2C—M” value [2]?
A: 19.10 and 17.75 and 19.18 and 18.50 and 19.03 and 18.87

Q: What about the “Normalized CT Value (Delta CT) MMP9—M” value [2] of the same molecule?
A: 13.85 and 13.83

Q: And the “Normalized CT Value (Delta CT) NFKB1—M” value [2]?
A: 16.06 and 14.93 and 16.25 and 15.43 and 16.52 and 16.16

Q: What about the “Normalized CT Value (Delta CT) PADI4—M” value [2] of the same molecule?
A: 18.44 and 18.48 and 18.77 and 17.63 and 18.63 and 18.10

Q: And the “Normalized CT Value (Delta CT) PLA2G7—M” value [2]?
A: 14.36 and 13.77 and 14.74 and 13.71 and 14.94 and 14.53

Q: And the “Normalized CT Value (Delta CT) PTPRC_M” value [2]?
A: 13.36 and 12.55 and 13.38 and 12.76 and 13.68 and 13.33

Q: What about the “Normalized CT Value (Delta CT) PTX3_M” value [2] of the same molecule?
A: 25.27 and 25.26 and 25.48 and 25.42 and 25.11 and 25.50

Q: And the “Normalized CT Value (Delta CT) SERPINE1_M” value [2]?
A: 19.43 and 18.99 and 19.66 and 19.03 and 19.81 and 19.67

Q: What about the “Normalized CT Value (Delta CT) TGFB1_M” value [2] of the same molecule?
A: 15.24 and 14.22 and 15.34 and 14.62 and 15.36 and 15.02

Q: And the “Normalized CT Value (Delta CT) TIMP1_M” value [2]?
A: 24.76 and 24.74 and 24.73 and 24.34 and 25.09 and 25.40

Q: What about the “Normalized CT Value (Delta CT) TLR2_M” value [2] of the same molecule?
A: 17.41 and 16.20 and 17.63 and 16.31 and 17.86 and 16.84

Q: And the “Normalized CT Value (Delta CT) TLR4_M” value [2]?
A: 17.64 and 17.44 and 18.32 and 16.84 and 18.23 and 17.96

Q: And the “Normalized CT Value (Delta CT) TNFSF5—M” value [2]?
A: 19.49 and 18.16 and 19.15 and 18.68 and 19.51 and 19.59

Q: And the “Normalized CT Value (Delta CT) TNF_M” value [2]?
A: 19.01 and 18.04 and 19.79 and 18.91 and 19.32 and 19.14

Q: And the “Normalized CT Value (Delta CT) VEGF_M” value [2]?
A: 20.04 and 20.59 and 20.09 and 19.19 and 20.31 and 19.85

Q: What about the “ABCA1_M Normalized CT Value (Delta CT)” value [3] of the same molecule?
A: 17.55

Q: What about the “APAF1_M Normalized CT Value (Delta CT)” value [3] of the same molecule?
A: 18.58

Q: What about the “CASP1_M Normalized CT Value (Delta CT)” value [3] of the same molecule?
A: 17.59

Q: And the “CASP3_M Normalized CT Value (Delta CT)” value [3]?
A: 17.32

Q: What about the “CCR3_M Normalized CT Value (Delta CT)” value [3] of the same molecule?
A: 18.72

Q: What about the “CD3Z_M Normalized CT Value (Delta CT)” value [3] of the same molecule?
A: 16.52

Q: And the “CD8A_M Normalized CT Value (Delta CT)” value [3]?
A: 17.53

Q: And the “CD14_M Normalized CT Value (Delta CT)” value [3]?
A: 19.08

Q: What about the “CD86_M Normalized CT Value (Delta CT)” value [3] of the same molecule?
A: 21.94

Q: And the “CSPG2_M Normalized CT Value (Delta CT)” value [3]?
A: 18.69

Q: And the “F3_M Normalized CT Value (Delta CT)” value [3]?
A: 22.96

Q: And the “HMOX1_M Normalized CT Value (Delta CT)” value [3]?
A: 17.15

Q: What about the “HSPA1A—M Normalized CT Value (Delta CT)” value [3] of the same molecule?
A: 21.13

Q: And the “ICAM1—M Normalized CT Value (Delta CT)” value [3]?
A: 18.39

Q: What about the “IFI16—M Normalized CT Value (Delta CT)” value [3] of the same molecule?
A: 16.29

Q: What about the “IL1B_M Normalized CT Value (Delta CT)” value [3] of the same molecule?
A: 13.94

Q: And the “IL10_M Normalized CT Value (Delta CT)” value [3]?
A: 25.42

Q: What about the “ABCA1_M Normalized CT Value (Delta CT)” value [4] of the same molecule?
A: 18.22 and 16.54 and 17.90 and 16.93 and 18.24 and 17.49

Q: And the “APAF1_M Normalized CT Value (Delta CT)” value [4]?
A: 18.85 and 18.10 and 18.95 and 18.00 and 19.01 and 18.59

Q: And the “ARG2_M Normalized CT Value (Delta CT)” value [4]?
A: 17.02 and 17.06 and 17.28 and 16.20 and 17.35 and 16.48

Q: And the “CASP1_M Normalized CT Value (Delta CT)” value [4]?
A: 17.64 and 16.61 and 18.07 and 17.26 and 18.15 and 17.79

Q: What about the “CASP3_M Normalized CT Value (Delta CT)” value [4] of the same molecule?
A: 17.09 (2×) and 17.18 and 17.10 and 17.91 and 17.54

Q: And the “CCR3_M Normalized CT Value (Delta CT)” value [4]?
A: 18.09 and 18.62 and 18.24 and 18.86 and 18.96 and 19.54

Q: And the “CD3Z_M Normalized CT Value (Delta CT)” value [4]?
A: 16.64 and 15.65 and 16.81 and 16.13 and 16.77 and 17.10

Q: And the “CD8A_M Normalized CT Value (Delta CT)” value [4]?
A: 17.59 and 17.17 and 17.84 and 17.11 and 17.75 and 17.73

Q: What about the “CD14_M Normalized CT Value (Delta CT)” value [4] of the same molecule?
A: 19.53 and 18.14 and 19.42 and 18.23 and 20.06 and 19.13

Q: What about the “CD86_M Normalized CT Value (Delta CT)” value [4] of the same molecule?
A: 22.58 and 20.83 and 22.75 and 21.71 and 22.21 and 21.57

Q: What about the “CSPG2_M Normalized CT Value (Delta CT)” value [4] of the same molecule?
A: 19.41 and 17.60 and 19.56 and 17.94 and 19.13 and 18.51

Q: And the “F3_M Normalized CT Value (Delta CT)” value [4]?
A: 22.15 and 23.54 and 24.16 and 21.10 and 25.46 and 21.36

Q: What about the “HMOX1_M Normalized CT Value (Delta CT)” value [4] of the same molecule?
A: 17.27 and 16.34 and 17.85 and 15.97 and 18.08 and 17.40

Q: And the “HSPA1A—M Normalized CT Value (Delta CT)” value [4]?
A: 21.03 and 20.92 and 21.32 and 20.88 and 21.99 and 20.62

Q: And the “ICAM1—M Normalized CT Value (Delta CT)” value [4]?
A: 18.70 and 17.80 and 18.96 and 18.10 and 18.69 and 18.08

Q: What about the “IFI16—M Normalized CT Value (Delta CT)” value [4] of the same molecule?
A: 16.35 and 14.96 and 17.17 and 16.15 and 16.73 and 16.40

Q: And the “IL1B_M Normalized CT Value (Delta CT)” value [4]?
A: 14.33 and 13.94 and 14.24 and 13.43 and 14.32

Q: What about the “IL10_M Normalized CT Value (Delta CT)” value [4] of the same molecule?
A: 25.39 and 25.60 and 25.53 and 25.18 and 25.34 and 25.45

Q: What about the “Normalized CT Value (Delta CT) IL1RAP_M” value [5] of the same molecule?
A: 18.59

Q: And the “Normalized CT Value (Delta CT) IL1RN—M” value [5]?
A: 17.70

Q: And the “Normalized CT Value (Delta CT) IL6_M” value [5]?
A: 25.48

Q: What about the “Normalized CT Value (Delta CT) JUN_M” value [5] of the same molecule?
A: 19.67

Q: And the “Normalized CT Value (Delta CT) MEF2C—M” value [5]?
A: 20.33

Q: What about the “Normalized CT Value (Delta CT) MMP9—M” value [5] of the same molecule?
A: 14.45

Q: And the “Normalized CT Value (Delta CT) NFKB1—M” value [5]?
A: 17.29

Q: And the “Normalized CT Value (Delta CT) PADI4—M” value [5]?
A: 18.79

Q: And the “Normalized CT Value (Delta CT) PLA2G7—M” value [5]?
A: 15.21

Q: And the “Normalized CT Value (Delta CT) PTPRC_M” value [6]?
A: 14.30

Q: What about the “Normalized CT Value (Delta CT) PTX3_M” value [6] of the same molecule?
A: 25.29

Q: And the “Normalized CT Value (Delta CT) SERPINE1_M” value [6]?
A: 19.63

Q: And the “Normalized CT Value (Delta CT) TGFB1_M” value [6]?
A: 16.04

Q: What about the “Normalized CT Value (Delta CT) TIMP1_M” value [6] of the same molecule?
A: 25.27

Q: And the “Normalized CT Value (Delta CT) TLR2_M” value [6]?
A: 18.52
